What all share (assay): microbe, parasite or virus in culture
Holding throughout (type): functional

One assay has as its system Klebsiella pneumoniae. The settings on record: ATCC 27736, 24 h.
The subject of assay [1] is Staphylococcus aureus. The settings on record: ATCC 29213, 24 h.
Assay [2] concerns Staphylococcus aureus. Particulars: ATCC 25923, 24 h.

In brackets after ≈: the same amount, converted by molar mass. Bounds are passed on as bounds.

Our source for the MIC values is ChEMBL document CHEMBL1759957, “Synthesis and antibacterial evaluation of novel 8-fluoro Norfloxacin derivatives as potential probes for methicillin and vancomycin-resistant Staphylococcus aureus” (2011).

For the compound `CCn1cc(C(=O)O)c(=O)c2cc(F)c(N3CCN(Cc4ccccc4)CC3)c(F)c21`, the MIC against Klebsiella pneumoniae was 0.011 µg/mL (≈ 0.0257 µM); against Staphylococcus aureus [1] it was 0.19 µg/mL (≈ 0.444 µM); with Staphylococcus aureus [2] it was 0.19 µg/mL (≈ 0.444 µM).
Turning to `CCn1cc(C(=O)O)c(=O)c2cc(F)c(N3CCN(c4ccccc4)CC3)c(F)c21`, the MIC against Klebsiella pneumoniae was 0.09 µg/mL (≈ 0.218 µM); against Staphylococcus aureus [1], 0.09 µg/mL (≈ 0.218 µM); in the assay with Staphylococcus aureus [2], 0.39 µg/mL (≈ 0.943 µM).
As for `CCn1cc(C(=O)O)c(=O)c2cc(F)c(N3CCOCC3)c(F)c21`, the values for the MIC in the assay on Klebsiella pneumoniae, against Staphylococcus aureus [1] and against Staphylococcus aureus [2] were 0.022 µg/mL (≈ 0.065 µM), 0.045 µg/mL (≈ 0.133 µM) and 0.022 µg/mL (≈ 0.065 µM), respectively.
For `CCn1cc(C(=O)O)c(=O)c2cc(F)c(N3CCCCC3)c(F)c21`, the figures for the MIC against Klebsiella pneumoniae, in the assay on Staphylococcus aureus [1] and against Staphylococcus aureus [2] were 0.19 µg/mL (≈ 0.565 µM), 0.39 µg/mL (≈ 1.16 µM) and 0.19 µg/mL (≈ 0.565 µM), respectively.
With `CCN1CCN(c2c(F)cc3c(=O)c(C(=O)O)cn(CC)c3c2F)CC1`, the MIC came to 0.19 µg/mL (≈ 0.52 µM) against Klebsiella pneumoniae, 0.39 µg/mL (≈ 1.07 µM) with Staphylococcus aureus [1] and 0.78 µg/mL (≈ 2.13 µM) against Staphylococcus aureus [2].
As to `CCCCNc1c(F)cc2c(=O)c(C(=O)O)cn(CC)c2c1F`, the MIC against Klebsiella pneumoniae was found to be 0.022 µg/mL (≈ 0.0678 µM); against Staphylococcus aureus [1], 0.39 µg/mL (≈ 1.2 µM); in the assay with Staphylococcus aureus [2] it was 0.39 µg/mL (≈ 1.2 µM).
`CCn1cc(C(=O)O)c(=O)c2cc(F)c(NC(C)C)c(F)c21`: the values for the MIC against Klebsiella pneumoniae, with Staphylococcus aureus [1] and in the assay with Staphylococcus aureus [2] were 0.09 µg/mL (≈ 0.29 µM), 0.78 µg/mL (≈ 2.51 µM) and 0.78 µg/mL (≈ 2.51 µM), respectively.
In the case of `CCn1cc(C(=O)O)c(=O)c2cc(F)c(N3CCN(c4nc(N5CCCCC5)nc(N5CCCCC5)n4)CC3)c(F)c21`, the MIC against Klebsiella pneumoniae and with Staphylococcus aureus [2] was > 50 µg/mL each time.
Take `CCCNc1nc(NCCC)nc(N2CCN(c3c(F)cc4c(=O)c(C(=O)O)cn(CC)c4c3F)CC2)n1`: the MIC was 0.19 µg/mL (≈ 0.358 µM) with Klebsiella pneumoniae, 0.78 µg/mL (≈ 1.47 µM) against Staphylococcus aureus [1] and 0.78 µg/mL (≈ 1.47 µM) against Staphylococcus aureus [2].
`O=C(O)c1cn(Cc2ccc(C(F)(F)F)cc2)c2c(F)c(N3CCN(c4nc(NCCCN5CCOCC5)nc(NCCCN5CCOCC5)n4)CC3)c(F)cc2c1=O`: the values for the MIC against Klebsiella pneumoniae and with Staphylococcus aureus [2] were 50 µg/mL (≈ 60.2 µM) and > 50 µg/mL, respectively.
As to `CCn1cc(C(=O)O)c(=O)c2cc(F)c(N3CCN(c4cc(C)nc(N5CCOCC5)n4)CC3)c(F)c21`, the MIC turned out to be 0.045 µg/mL (≈ 0.0875 µM) in the assay with Klebsiella pneumoniae, 0.045 µg/mL (≈ 0.0875 µM) in the assay with Staphylococcus aureus [1] and 0.39 µg/mL (≈ 0.758 µM) with Staphylococcus aureus [2].
For `CCn1cc(C(=O)O)c(=O)c2cc(F)c(N3CCN(c4cc(C)nc(N5CCCCC5)n4)CC3)c(F)c21`, the values for the MIC against Klebsiella pneumoniae, in the assay on Staphylococcus aureus [1] and against Staphylococcus aureus [2] were 0.045 µg/mL (≈ 0.0878 µM), 0.39 µg/mL (≈ 0.761 µM) and 0.39 µg/mL (≈ 0.761 µM), respectively.
As for `CCn1cc(C(=O)O)c(=O)c2cc(F)c(N3CCN(c4cc(C)nc(N5CCN(C)CC5)n4)CC3)cc21`, the MIC in the assay on Klebsiella pneumoniae and with Staphylococcus aureus [2] was > 50 µg/mL in each case.
Turning to `CCn1cc(C(=O)O)c(=O)c2cc(F)c(N3CCN(c4cc(C)nc(NCCN5CCOCC5)n4)CC3)c(F)c21`, the MIC against Klebsiella pneumoniae was determined as 0.22 µg/mL (≈ 0.395 µM); in the assay on Staphylococcus aureus [1] it was 0.19 µg/mL (≈ 0.341 µM); against Staphylococcus aureus [2] it was 0.22 µg/mL (≈ 0.395 µM).
Consider `CCCNc1nc(C)cc(N2CCN(c3c(F)cc4c(=O)c(C(=O)O)cn(CC)c4c3F)CC2)n1`, for which the MIC against Klebsiella pneumoniae was determined as 0.09 µg/mL (≈ 0.185 µM); against Staphylococcus aureus [1] it was 0.39 µg/mL (≈ 0.802 µM); with Staphylococcus aureus [2], 0.39 µg/mL (≈ 0.802 µM).
Regarding `CCn1cc(C(=O)O)c(=O)c2cc(F)c(N3CCN(c4cc(C)nc(NC(C)C)n4)CC3)c(F)c21`, the MIC in the assay on Klebsiella pneumoniae was 0.011 µg/mL (≈ 0.0226 µM); in the assay on Staphylococcus aureus [1], 0.19 µg/mL (≈ 0.391 µM); in the assay with Staphylococcus aureus [2] it was 0.22 µg/mL (≈ 0.452 µM).
Taken in the same sequence, the figures for `Cc1cc(N2CCN(c3c(F)cc4c(=O)c(C(=O)O)cn(Cc5ccc(C(F)(F)F)cc5)c4c3F)CC2)nc(NC(C)(C)C)n1` were 0.19 µg/mL (≈ 0.301 µM), 1.56 µg/mL (≈ 2.47 µM) and 1.56 µg/mL (≈ 2.47 µM).
Regarding `Cc1cc(N2CCN(c3c(F)cc4c(=O)c(C(=O)O)cn(Cc5ccc(C(F)(F)F)cc5)c4c3F)CC2)nc(NC(C)C)n1`, the MIC in the assay with Klebsiella pneumoniae came to 0.19 µg/mL (≈ 0.308 µM); with Staphylococcus aureus [1] it was 0.78 µg/mL (≈ 1.27 µM); in the assay on Staphylococcus aureus [2], 0.78 µg/mL (≈ 1.27 µM).
For the compound `CCn1cc(C(=O)O)c(=O)c2cc(F)c(N3CCNCC3)c(F)c21`, the results for the MIC with Klebsiella pneumoniae, in the assay on Staphylococcus aureus [1] and with Staphylococcus aureus [2] were 0.045 µg/mL (≈ 0.133 µM), 0.39 µg/mL (≈ 1.16 µM) and 0.78 µg/mL (≈ 2.31 µM), respectively.
For the compound `CCn1cc(C(=O)O)c(=O)c2cc(F)c(N3CCN(C)CC3)c(F)c21`, the MIC in the assay with Klebsiella pneumoniae amounted to 0.011 µg/mL (≈ 0.0313 µM); against Staphylococcus aureus [1], 0.19 µg/mL (≈ 0.541 µM); in the assay on Staphylococcus aureus [2], 0.19 µg/mL (≈ 0.541 µM).
